# Measured values taken from patent US10370372B2, “Fused pyrimidine compound or salt thereof” (TAIHO PHARMACEUTICAL CO., LTD., priority 2015, dated 2019).
# pIC50: −log10 of the molar value.
# Key:
# Assay type in all cases: cell-based
# [1] = system: Human prostate cancer cells LNCaP; assay: Inhibitory activity on androgen-dependent proliferation of prostate cancer cells; settings: 1 nmol/L DHT, 72 hours, Cell Counting Kit-8, read-out: Proliferation inhibition concentration GI50 value
# Protocol: Human prostate cancer cells LNCaP (Non-Patent Literature 5) having […] androgen receptor gene were seeded in a clear bottom 96 well microplate (BD) at 4.0×10^3/well with phenol red free RPMI1640 containing 5% DCC-FBS (hereinbelow, the medium is referred to as an evaluation medium), and then cultured overnight. […] Then, the number of viable cells was measured. The number of viable cells was measured by using Cell Counting Kit-8 (DOJINDO LABORATORIES).
# human androgen receptor = target: T1, human androgen receptor (Homo sapiens, UniProt P10275); assay: Antagonist activity for AR: MMTV-luc reporter transcription in COS-7 cells transfected with human AR, stimulated with DHT
# T1 construct: expressed in transfected cells; host or cells: COS-7 cells (ATCC)
# T1 sequence (P10275 1-920): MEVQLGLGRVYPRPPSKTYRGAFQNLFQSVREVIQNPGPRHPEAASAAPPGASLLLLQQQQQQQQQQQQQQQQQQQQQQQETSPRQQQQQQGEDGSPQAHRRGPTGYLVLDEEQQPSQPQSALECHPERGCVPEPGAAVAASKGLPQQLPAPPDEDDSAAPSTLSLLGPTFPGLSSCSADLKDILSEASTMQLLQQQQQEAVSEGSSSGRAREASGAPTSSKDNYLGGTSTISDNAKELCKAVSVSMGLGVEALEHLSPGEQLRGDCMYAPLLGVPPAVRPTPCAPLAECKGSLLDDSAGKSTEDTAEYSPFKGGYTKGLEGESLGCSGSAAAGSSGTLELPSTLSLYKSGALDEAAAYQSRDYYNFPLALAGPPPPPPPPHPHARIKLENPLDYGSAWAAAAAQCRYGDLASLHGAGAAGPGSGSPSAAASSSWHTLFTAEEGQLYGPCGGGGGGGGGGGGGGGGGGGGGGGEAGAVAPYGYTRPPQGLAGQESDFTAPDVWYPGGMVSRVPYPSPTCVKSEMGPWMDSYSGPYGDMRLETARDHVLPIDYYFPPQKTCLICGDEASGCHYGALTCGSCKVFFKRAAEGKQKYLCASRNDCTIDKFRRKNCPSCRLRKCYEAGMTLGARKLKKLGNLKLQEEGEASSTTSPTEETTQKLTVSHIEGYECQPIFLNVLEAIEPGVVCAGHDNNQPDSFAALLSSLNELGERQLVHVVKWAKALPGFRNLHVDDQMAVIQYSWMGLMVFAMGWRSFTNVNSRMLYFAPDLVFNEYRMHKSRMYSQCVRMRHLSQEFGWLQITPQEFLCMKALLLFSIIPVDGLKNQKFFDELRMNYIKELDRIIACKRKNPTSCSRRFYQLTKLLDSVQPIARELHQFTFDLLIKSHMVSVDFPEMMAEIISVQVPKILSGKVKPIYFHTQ
# Protocol: Antagonist activity for AR was evaluated according to the following method. COS-7 cells (ATCC) were transfected with pMMTV-luc vector (reporter plasmid having, as an androgen response element, […] long terminal repeat) and pEX-hAR vector (human androgen receptor expression vector: which expresses human AR gene under control of CMV promoter) by using Nucleofector (registered trademark) Kit R (Lonza) as a transfection reagent and Amaxa (Lonza). The COS-7 cells obtained after transfection were seeded in a clear bottom 96 well microplate (BD) at 1.5×10^4/well with phenol red free RPMI1640 containing 10% charcoal-treated fetal bovine serum (hereinbelow, DCC-FBS) (hereinbelow, the medium is referred to as an evaluation medium), and then cultured overnight. […] Then, the transcription activity value of the reporter plasmid was measured. The transcription activity was measured by using Bright-Glo™ Luciferase Assay System (Promega).
# [2] = system: AR positive human prostate cancer cells VCaP; assay: Agonist activity for AR: cell proliferation rate of VCaP cells; settings: 5-10000 nmol/L, 72 hours, relative to evaluation medium only, more than 10% = agonist activity
# Protocol: Then, the number of viable cells was measured (test group). As a control, the cells were cultured after being added with the evaluation medium only, and the number of viable cells was measured (control group). The number of viable cells was measured by using CellTiter-Glo™ Luminescent Cell Viability Assay (Promega). From the measured number of viable cells, cell proliferation rate with respect to the compound of Examples or the compound of Comparative Examples was calculated based on the number of viable cells measured in the case of using the evaluation medium only. Cell proliferation rate (%)=(Number of viable cells in test group−Number of viable cells in control group)/(Number of viable cells in control group)×100
# By considering an error in the number of viable cells measured in the case of using the evaluation medium only, when the cell proliferation rate was more than 10% at any concentration of the 8 concentrations which had been evaluated, it was determined to have an agonist activity for AR.
# AR expression in LNCaP = assay: Activity of reducing expression level of androgen receptor (Western blotting in LNCaP); settings: Homo sapiens, 48 h, read-out: AR expression reducing activity
# Protocol: AR positive human prostate cancer cells LNCaP were seeded in a 6 well microplate (BD) at 3.5×10^5/well with RPMI1640 containing 5% FBS (hereinbelow, the medium is referred to as an evaluation medium), and then cultured overnight. […] After culture for 48 hours, the medium was removed and the cells were washed with PBS and added with 0.1 mL of Lysis buffer (M-PER added with Protease Inhibitor Cocktail), followed by keeping at 4° C. for 20 minutes. After cell lysis, the cell solution was centrifuged to recover the supernatant as cell lysate. […] The antibody-reacting band (anti AR receptor) was quantified by LAS Imaging System (FUJIFILM) using Super Signal West Dura Substrate (Thermo Scientific) as a detection reagent.
# When the AR expression reducing activity is 50% or more, it is described as “reduced”.
SMILES,GI50 [1],pIC50 (human androgen receptor),Cell proliferation rate (%) [2],inhibition at 10 µM (AR expression in LNCaP)
"CC(C)(O)c1ccc(Nc2ncnc3c2CCN(c2ccc([N+](=O)[O-])c(C(F)(F)F)c2)C3)nc1 [Example 14, 2-(6-((7-(4-nitro-3-(trifluoromethyl)phenyl)-5,6,7,8-tetrahydropyrido[3,4-d]pyrimidin-4-yl)amino)pyridin-3-yl)propan-2-ol]",1200 nM,7.15,1.4%,> 50%
"CC(=O)N1CCN(CCCOc2ccc(Nc3ncnc4c3CCN(c3ccc(C#N)c(Cl)c3)C4)cc2C(F)(F)F)CC1 [Example 43, 4-(4-((4-(3-(4-acetylpiperazin-1-yl)propoxy)-3-(trifluoromethyl)phenyl)amino)-5,6-dihydropyrido[3,4-d]pyrimidin-7(8H)-yl)-2-chlorobenzonitrile]",380 nM,6.52,8.4%,> 50%
"CNC(=O)c1ccc(Nc2ncnc3c2CCN(c2ccc(C#N)c(C(F)(F)F)c2)C3)nc1F [Example 3, 6-((7-(4-cyano-3-(trifluoromethyl)phenyl)-5,6,7,8-tetrahydropyrido[3,4-d]pyrimidin-4-yl)amino)-2-fluoro-N-methylnicotinamide]",360 nM,7.51,8.9%,> 50%
